Test results from patent publication US9260376B2, “Compounds for use in the treatment of immune related inflammatory disease” (VENANTIUS LIMITED, priority 2011, dated 2016).
Marks after values point to notes of the source that are not given here.

What was measured:
5% DSS murine colitis [1] = assay: DSS murine colitis, Experiment 2 (Method 2); type: in vivo, BDF1 male mice; conditions: 10 ml/kg oral gavage daily day 0-6, 5-ASA 100 mg/kg; for DAI at day 7 in comparison with vehicle: 31 at 2 mg/ml, 47 at 4 mg/ml
Description: A total of 90 BDF1 (H. pylori-free, murine norovirus-free) male mice (Harlan Laboratories, UK) were used in the study. Animals were 8-10 weeks old on supply and used at 10-12 weeks of age. All mice were held in individually ventilated cages (IVCs) in an SPF (Specific Pathogen Free) barrier unit. The animals were identified by numbered cages and by ear punches.
DSS (MP Biomedicals 0216011090, lot# M2709) was prepared as a 5% (w/v) solution in the drinking water and made fresh daily on days 0 to 6 inclusive. DSS was administered from day 0 to day 7.
Test items were stored at −20° C. until the initiation of the study. Each test item was formulated as a homogenous suspension in 0.5% carboxymethyl cellulose (CMC, Sigma C4888) in sterile water (Sigma W3500, lot# RNBC1419), using an Ultraturax homogeniser, on study day −1. Compound 31 was formulated at 2 mg/ml and 47 was formulated at 4 mg/ml. After formulation the test item and the vehicle stocks anonymised with a letter code. All solutions were stored at 4° C. during the study, with 3.8 ml of each suspension being dispensed daily. Test items were administered by oral gavage, daily at 09.00 hrs, at 10 ml/kg, from study day 0 to study day 6.
5-ASA (5-Aminosalicylic acid, Sigma A3537, lot#051M1878V) was aliquoted into preweighed amounts between 71 and 84 mg. Like test item suspensions, these aliquots were anonymised by a letter code. Individual aliquots were formulated as a 10 mg/ml suspension in 0.5% CMC (Sigma C4888) in sterile water (Sigma W3500, lot# RNBC1419) on each day of dosing. 5-ASA was administered by oral gavage, daily at 09.00 hrs, at 10 ml/kg to give a dose of 100 mg/kg, from study day 0 to study day 6. 2.5 Clinical examinations
Any animal was culled if the weight loss was greater than 20%. Animal well-being was monitored daily. Once daily from day 0 until the end of the study, all mice were weighed and assessed for stool consistency, and the presence of overt blood in the stool or around the anus according to the criteria in 2.1
At necropsy, observation of stool in the large bowel was used to supplement in-life observation. […]

5% DSS murine colitis [2] = assay: Acute murine 5% DSS colitis model, Experiment 1; type: in vivo; conditions: for DAI at day 7: 10 mg/kg daily for 7 days, vehicle 9.3±0.51; for DAI on the day of autopsy versus vehicle controls: compound 6 3-30 mg/kg at each dose level; for colon pathology (histology scores) relative to vehicle: compound 6 at both 10 and 30 mg/Kg, prednisolone 5 mg/Kg; for colon IL1β level / colon IL6 level / colon TNFα level: day 7; for colon IL1β level: DSS-elevated 0.744±0.076 ng/mg; for colon IL6 level: DSS-elevated 1.057±0.1784 ng/mg; for colon TNFα level: DSS-elevated 1.478±0.378 ng/mg
Excerpt: The study is widely used as a model for studying the pathogenesis of UC and also for screening new therapeutic interventions for the treatment of UC.
In these studies, an acute colitis model was used, with 5% DSS administered in the drinking water of BALB/c mice. This dosage regime induces severe acute colitis, by days 7-8 mice had overt rectal bleeding and marked weight loss; unless sacrificed beforehand, all mice would have died by days 10-12.
Specific Pathogen-Free BALB/c mice, 6-8 weeks of age, were obtained from a commercial supplier (Harlan UK). Mice were fed irradiated diet and housed in individually ventilated cages (Tecniplast UK) under positive pressure.
DSS (5%) was dissolved in drinking water. Compounds were administered orally at a dose of 10 mg/kg or 30 mg/kg on days 0-7, and mice were culled on day 8 or day 9, depending on the severity of the disease. The mice were checked each day for morbidity and the weight of individual mice was recorded. Induction of colitis was determined upon autopsy, length of colon and histology. Colons were recovered and stored at −20° C. for immunological analysis. All of the compounds and experimental groups are randomly alphabetically labelled. Throughout experiments all data recording was performed in a blind manner. The codes on boxes/groups were not broken until after the data was analysed i.e. boxes labelled A, B, C etc were identified as untreated, DSS-treated, or DSS+compound-treated.
To quantify the extent of colitis, a disease activity index (DAI) was determined based on weight loss, faecal blood and stool consistency. A score was given for each parameter, with the sum of the scores used as the DAI. For each treatment group n=8.
All compounds were prepared for oral gavage (0.1 mL per os (p.o.) per 10 g body weight) as a suspension in 0.5% carboxymethyl cellulose/2% Tween 80, at a dose of 3-30 mg/Kg.

[3] = Solubility in water and buffers; type: physicochemical
Description: The sodium salt, potassium salt, calcium salt, α-methylbenzylamine salt and N-Methyl-(D)-Glucamine salt were synthesised. The sodium and calcium salt were unsuccessful. The three salts of compound 5, named potassium salt, α-methylbenzylamine salt and N-Methyl-(D)-Glucamine salt were used for solubility and partition coefficient (log P) studies.
The solubility of the four compounds were determined: […]

[4] = Partition coefficient (log P), HPLC method; type: physicochemical; conditions: reverse phase C18 HPLC; for Acid Log10 POW: acidic pH; for Basic Log10 POW: alkaline pH; for Neutral Log10 POW: neutral pH
Excerpt: The partition coefficient of compound 5 and related analogous compounds was investigated using the HPLC method (reverse phase C18 HPLC column) at neutral, acidic and alkaline pH.

[5] = tested on: chronic colitis in IL10-/- mice; assay: Chronic IL10-/- colitis model; type: in vivo, IL10-/- BALB/c strain mice; conditions: 300 mg/kg/week oral, MWF
Description: FIG. 15: Is a group showing weight loss in IL10^−−/−− mice treated with vehicle or compound 6. Mice were administered compound 6 (300 mg/kg/week) or vehicle orally on a Monday/Wednesday/Friday (MWF) dosing schedule. Mice were ˜4 weeks of age at start of experiment and were treated for 9 weeks. Mice were weighed weekly and data are presented as Mean±SEM from 9-12 mice per group. Mice were monitored for overt disease, rectal prolapse, and moribund animals were humanely killed;
Mice with a deletion in the IL10^−−/−− gene spontaneously develop chronic colitis, with the age of onset and the severity of the disease being dependent on background mouse strain and the conditions in which the animals are housed. The onset of colitis in IL10^−−/−− mice housed under the conditions used in this study was also strain dependent, with an earlier onset and greater severity, in terms of mortality, in BALB/c strain mice relative to C57BL/6 strain animals. In this experiment, animals received oral treatment on a MWF regime over 9 weeks. Initially, both groups of mice progressively gain weight (FIG. 15). […] By week 9 animals had marked weight loss, with one moribund animal humanely killed on day 60 in each group. As other mice were losing weight and developing clinical symptoms of disease, both groups were culled at week 9 (day 63) and analysed.

[6] = compound 6 10 and 30 mg/kg groups, Prednisolone 5 mg/kg
[7] = compound 6 30 mg/kg, Prednisolone 5 mg/kg

## NCC(=O)O[C@@H]1c2ccccc2C[C@@]1(Cc1ccc(C(=O)O)cc1)C1=Cc2ccccc2C1 [Compound 31, 4-{[(1′S,2′S)-1′-(glycyloxy)-1′,3′-dihydro-1H,2′H-2,2′-biinden-2′-yl]methyl}benzoic acid]
5% DSS murine colitis [1]
  DAI at day 7 in comparison with vehicle: reduced DAI comparable or equal to 5ASA

## CNCC(O)C(O)C(O)C(O)CO.O=C(O)c1ccc(C[C@]2(C3=Cc4ccccc4C3)Cc3ccccc3[C@H]2O)cc1 [Compound 7, 6-(Methylamino)hexane-1,2,3,4,5-pentanol 4-(((1S,2R)-1-hydroxy-2,3-dihydro-1H,1′H-2,2′-biinden-2-yl)methyl)benzoate]
5% DSS murine colitis [2]
  DAI at day 7: no significant (P>0.05) effect
[3]; Milli-RO water, listed as Compound 5 N-Methyl-D-Glucamine salt
  solubility, Milli-RO H20: >60,000* μg/mL
[3]; pH 4.0 buffer
  solubility, pH 4.0 Buffer: 0.14 μg/mL
[3]; pH 7.0 buffer, listed as Compound 5 N-Methyl-D-Glucamine salt
  solubility, pH 7.0 Buffer: >60,000* μg/mL
[3]; pH 9.0 buffer, listed as Compound 5 N-Methyl-D-Glucamine salt
  solubility, pH 9.0 Buffer: >60,000* μg/mL
[4]
  Acid Log10 POW: 3.8
  Basic Log10 POW: 3.5
  Neutral Log10 POW: 3.5

## O=C(O)c1ccc(C[C@@]2(C3=Cc4ccccc4C3)Cc3ccccc3[C@@H]2O)cc1 [Compound 4, 4-(((1R,2S)-1-hydroxy-2,3-dihydro-1H,1′H-2,2′-biinden-2-yl)methyl)benzoic acid]
5% DSS murine colitis [2]; 30 mg/kg p.o. daily for 7 days
  activity in 5% DSS murine colitis model: almost devoid of activity
5% DSS murine colitis [2]; 30 mg/kg p.o. daily for 7 days, vehicle controls 9.0±0.53
  disease activity index (DAI) at day 7: without activity

## O=C(O)c1ccc(C[C@]2(C3=Cc4ccccc4C3)Cc3ccccc3[C@H]2O)cc1 [Compound 5, 4-(((1S,2R)-1-hydroxy-2,3-dihydro-1H,1′H-2,2′-biinden-2-yl)methyl)benzoic acid]
5% DSS murine colitis [2]
  DAI at day 7: no significant (P>0.05) effect
5% DSS murine colitis [2]; 30 mg/kg p.o. daily for 7 days
  activity in 5% DSS murine colitis model: highly active
[4]
  Acid Log10 POW: 3.9
  Basic Log10 POW: 3.7
  Neutral Log10 POW: 3.7

## O=C(O)c1ccc(C[C@@]2(C3=Cc4ccccc4C3)Cc3ccccc3[C@H]2O)cc1 [Compound 6, 6-(Methylamino)hexane-1,2,3,4,5-pentanol 4-(((1S,2S)-1-hydroxy-2,3-dihydro-1H,1′H-2,2′-biinden-2-yl)methyl)benzoate]
5% DSS murine colitis [2]; 3 mg/kg
  inhibition of colon shortening (colon length) versus vehicle, day 7: did not have a significant effect
5% DSS murine colitis [2]; compound 6 30 mg/Kg versus prednisolone 5 mg/Kg
  therapeutic efficacy in the DSS model: comparable, or better, efficacy relative to prednisolone
5% DSS murine colitis [2]; compound 6 30 mg/kg, P<0.05
  colon length compared with Prednisolone, day 7: significantly better than Prednisolone
5% DSS murine colitis [2]; Prednisolone 5 mg/kg
  DAI on the day of autopsy versus vehicle controls: significantly (P<0.05-P<0.01) lower DAI than vehicle controls
5% DSS murine colitis [2]; [6]
  inhibition of colon shortening (colon length) versus vehicle, day 7: did have a significant effect
5% DSS murine colitis [2]
  colon pathology (histology scores) relative to vehicle: dose-dependent and highly statistically significant reduction
5% DSS murine colitis [2]; [7]
  colon IL1β level: significant (P<0.05, 30 mg/kg) and dose-dependant reduction
  colon IL6 level: significant (P<0.05, 30 mg/kg) and dose-dependant reduction
  colon TNFα level: significant (P<0.05, 30 mg/kg) and dose-dependant reduction
5% DSS murine colitis [2]; oral daily for 7 days, 3, 10 and 30 mg/Kg
  overt reactions in mice: no overt reactions
[4]
  Acid Log10 POW: 2.6
  Basic Log10 POW: 4.3
  Neutral Log10 POW: 3.5
[5]
  survival over the 9 weeks, Kaplan-Meier analysis versus vehicle: no statistical difference in survival
[5]; vehicle stopped gaining weight from week 5
  weight gain: maintained weight gain until week 8
[5]; week 9
  Serum Amyloid A (SAA) levels relative to vehicle: significantly (P<0.05; Student's t-test) reduced
  extent of colon pathology (histology score) relative to vehicle: significantly reduced

## C[C@]12C=CC(=O)C=C1CC[C@@H]1[C@@H]2[C@@H](O)C[C@@]2(C)[C@H]1CC[C@]2(O)C(=O)CO [Prednisolone, reference compound]
5% DSS murine colitis [2]; Prednisolone 5 mg/kg
  DAI on the day of autopsy versus vehicle controls: significantly (P<0.01; ANOVA; Dunnett Multiple Comparison Test) reduced DAI scores
5% DSS murine colitis [2]; [6]
  inhibition of colon shortening (colon length) versus vehicle, day 7: did have a significant effect
5% DSS murine colitis [2]
  colon pathology (histology scores) relative to vehicle: no significant improvement
5% DSS murine colitis [2]; [7]
  colon IL1β level: reduced (p<0.05)
  colon IL6 level: reduced (p<0.05)
  colon TNFα level: reduced (p<0.05)

## O=C(Nc1ccc(O)c(C(=O)O)c1)c1ccc(C[C@@]2(C3=Cc4ccccc4C3)Cc3ccccc3[C@H]2O)cc1 [Compound 47, 2-hydroxy-5-(4-(((1S,2S)-1-hydroxy-2,3-dihydro-1H,1′H-[2,2′-biinden]-2-yl)methyl)benzamido)benzoic acid]
5% DSS murine colitis [1]
  DAI at day 7 in comparison with vehicle: reduced DAI comparable or equal to 5ASA
5% DSS murine colitis [1]; 47 formulated at 4 mg/ml
  loss of body weight at day 7 in comparison with vehicle control: does not result in an increase in loss of body weight

## O=C(O)c1ccc(C[C@@]2(C3=Cc4ccccc4C3)Cc3ccccc3[C@H]2O)cc1 (single isomer, unassigned) [Compound 2]
5% DSS murine colitis [2]; 30 mg/kg p.o. daily for 7 days
  activity in 5% DSS murine colitis model: highly active

## O=C(O)c1ccc(C[C@]2(C3=Cc4ccccc4C3)Cc3ccccc3[C@@H]2O)cc1 (single isomer, unassigned) [Compound 3]
5% DSS murine colitis [2]; 30 mg/kg p.o.
  DAI at day 6 versus vehicle: no statistical (P>0.05) difference
5% DSS murine colitis [2]; 30 mg/kg p.o. daily for 7 days
  activity in 5% DSS murine colitis model: minimal activity
